Measurements from ChEMBL document CHEMBL5230103, “Hydroxamic acid hybrids as the potential anticancer agents: An Overview” (Eur J Med Chem, 2020).

Tests used:
[1] = system: T98G; test: Cytotoxicity against human T98G cells assessed as inhibition of cell growth by MTT assay; assay type: functional, cell-based
[2] = Cytotoxicity against human U87 cells assessed as inhibition of cell growth by MTT assay; assay type: functional, cell-based, U-87MG ATCC; details: U-87 MG
[3] = system: U-251; test: Cytotoxicity against human U-251 cells assessed as inhibition of cell growth by MTT assay; assay type: functional, cell-based
[4] = system: PC-3; test: Cytotoxicity against human PC-3 cells assessed as inhibition of cell growth by MTT assay; assay type: functional, cell-based
[5] = system: SW-620; test: Cytotoxicity against human SW620 cells assessed as inhibition of cell growth by MTT assay; assay type: functional, cell-based
[6] = system: T47D; test: Cytotoxicity against human T47D cells assessed as inhibition of cell growth by MTT assay; assay type: functional, cell-based
[7] = system: HT-29; test: Cytotoxicity against human HT-29 cells assessed as inhibition of cell growth by MTT assay; assay type: functional, cell-based
[8] = target: Histone deacetylase; test: Inhibition of HDAC (unknown origin); assay type: protein assay, Homo sapiens
[9] = system: AGS; test: Cytotoxicity against human AGS cells assessed as inhibition of cell growth by MTT assay; assay type: functional, cell-based
[10] = system: HCT-116; test: Cytotoxicity against human HCT-116 cells assessed as inhibition of cell growth by MTT assay; assay type: functional, cell-based
[11] = system: K562; test: Cytotoxicity against human K562 cells assessed as inhibition of cell growth by MTT assay; assay type: functional, cell-based
[12] = target: cGMP-specific 3',5'-cyclic phosphodiesterase (Homo sapiens, UniProt O76074); test: Inhibition of PDE5 (unknown origin)
[13] = system: LNCaP; test: Cytotoxicity against human LNCaP cells assessed as inhibition of cell growth by MTT assay; assay type: functional, cell-based
[14] = system: MOLT-4; test: Cytotoxicity against human MOLT-4 cells assessed as inhibition of cell growth by MTT assay; assay type: functional, cell-based
[15] = system: SUP-T1; test: Cytotoxicity against human SUP-T1 cells assessed as inhibition of cell growth by MTT assay; assay type: functional, cell-based

SMILES: O=C(CCCCCNC(=O)c1cc(O)c2c(c1)C(=O)c1cccc(O)c1C2=O)NO
- IC50 [1]: 5500 nM
- IC50 [2]: 5500 nM
- IC50 [3]: 5500 nM

SMILES: O=C(CCCCCN1CCN2[C@H](Cc3c([nH]c4ccccc34)[C@H]2c2ccc(Br)cc2)C1)NO
- IC50 [4]: 1500 nM
- IC50 [5]: 1500 nM
- IC50 [6]: 1500 nM
- IC50 [7]: 1500 nM
- IC50 [8]: 14.5 nM
- IC50 [9]: 1500 nM
- IC50 [10]: 1500 nM
- IC50 [11]: 1500 nM
- IC50 [12]: 46.3 nM
- IC50 [13]: 1500 nM
- IC50 [14]: 1500 nM
- IC50 [15]: 1500 nM
